Values quoted from earlier work, collected in patent publication US20080260683A1, “Rodenticide” (priority 2004, published 2008).

Row | Compound | solubility in water
1 | O=c1oc2ccccc2c(O)c1C1CC(c2ccc(-c3ccc(Br)cc3)cc2)Cc2ccccc21 (stereo not shown) [Brodifacoum, brodifacoum] | insoluble or weakly soluble in water
2 | O=c1oc2ccccc2c(O)c1C(CC(O)c1ccc(-c2ccc(Br)cc2)cc1)c1ccccc1 (stereo not shown) [bromadiolone] | insoluble or weakly soluble in water
3 | O=c1sc2ccccc2c(O)c1C1CC(c2ccc(-c3ccc(Br)cc3)cc2)Cc2ccccc21 (stereo not shown) [difethialone] | insoluble or weakly soluble in water
4 | O=c1oc2ccccc2c(O)c1C1CC(c2ccc(OCc3ccc(C(F)(F)F)cc3)cc2)Cc2ccccc21 (stereo not shown) [flocoumafen] | insoluble or weakly soluble in water
